Experimental data published in PubChem BioAssay AID248 (DTP/NCI, 2004).
Values joined by “and” are separate entries in the source; they are usually repeats but may differ in a detail not shown here. Identical values can stand only once. Toxic doses and inconclusive results are not listed. Rule as the data show it: active = T/C of 150% or more; inactive = T/C below 125%.

Test system: L1210 leukemia ip in BDF1 mice, survival T/C
Assay: NCI In Vivo Anticancer Drug Screen. Data for tumor model L1210 Leukemia (intraperitoneal) in B6D2F1 (BDF1) mice
Settings: endpoint: mean survival time, higher = longer survival
How it was run: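 Tumor cells were implanted, animals were treated, and survival was followed. The result divides the treated measurement by the vehicle-control measurement.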

[1] = dose: 100.0 mg/kg/injection, schedule: Q01DX001 (ip), vehicle: saline
[2] = dose: 200.0 mg/kg/injection, schedule: Q01DX001 (ip), vehicle: saline
[3] = dose: 400.0 mg/kg/injection, schedule: Q01DX001 (ip), vehicle: saline
[4] = dose: 100.0 mg/kg/injection, schedule: Q01DX001 (ip), vehicle: carboxymethylcellulose (CMC)
[5] = dose: 200.0 mg/kg/injection, schedule: Q01DX001 (ip), vehicle: carboxymethylcellulose (CMC)
[6] = dose: 25.0 mg/kg/injection, schedule: Q01DX009 (ip), vehicle: saline with Tween-80
[7] = dose: 50.0 mg/kg/injection, schedule: Q01DX009 (ip), vehicle: saline with Tween-80
[8] = dose: 100.0 mg/kg/injection, schedule: Q01DX009 (ip), vehicle: saline with Tween-80
[9] = dose: 200.0 mg/kg/injection, schedule: Q01DX009 (ip), vehicle: saline with Tween-80
[10] = dose: 400.0 mg/kg/injection, schedule: Q01DX009 (ip), vehicle: saline with Tween-80
[11] = dose: 100.0 mg/kg/injection, schedule: Q04DX003 (ip), vehicle: saline with Tween-80
[12] = dose: 100.0 mg/kg/injection, schedule: Q04DX003 (ip), vehicle: Klucel (hydroxypropylcellulose) (HPC)
[13] = dose: 200.0 mg/kg/injection, schedule: Q04DX003 (ip), vehicle: Klucel (hydroxypropylcellulose) (HPC)
[14] = dose: 400.0 mg/kg/injection, schedule: Q04DX003 (ip), vehicle: Klucel (hydroxypropylcellulose) (HPC)
[15] = dose: 100.0 mg/kg/injection, schedule: Q04DX003 (ip), vehicle: saline
[16] = dose: 200.0 mg/kg/injection, schedule: Q04DX003 (ip), vehicle: saline
[17] = dose: 400.0 mg/kg/injection, schedule: Q04DX003 (ip), vehicle: saline
[18] = dose: 100.0 mg/kg/injection, schedule: Q01DX009 (ip), vehicle: saline
[19] = dose: 200.0 mg/kg/injection, schedule: Q01DX009 (ip), vehicle: saline
[20] = dose: 400.0 mg/kg/injection, schedule: Q01DX009 (ip), vehicle: saline
[21] = dose: 100.0 mg/kg/injection, schedule: Q01DX001 (ip), vehicle: Klucel (hydroxypropylcellulose) (HPC)
[22] = dose: 100.0 mg/kg/injection, schedule: Q01DX009 (ip), vehicle: Klucel (hydroxypropylcellulose) (HPC)
[23] = dose: 200.0 mg/kg/injection, schedule: Q01DX009 (ip), vehicle: Klucel (hydroxypropylcellulose) (HPC)
[24] = dose: 400.0 mg/kg/injection, schedule: Q01DX009 (ip), vehicle: Klucel (hydroxypropylcellulose) (HPC)

Measured: T/C

NC(c1ccccc1)C(O)c1ccccc1 (stereo not drawn)
inactive: dose: 37.5 mg/kg/injection, schedule: Q04DX003 (ip), vehicle: saline 98 % of control | dose: 75.0 mg/kg/injection, schedule: Q04DX003 (ip), vehicle: saline 92 % of control | dose: 150.0 mg/kg/injection, schedule: Q04DX003 (ip), vehicle: saline 101 % of control

O=C1OCCC12CCCCC21OCCO1 (stereo not drawn)
inactive: [1] 101 % of control | [2] 104 % of control | [3] 98 % of control

OCC(O)C(O)/C=N/Nc1cc(Cl)ccc1Cl (stereo not drawn)
inactive: dose: 50.0 mg/kg/injection, schedule: Q01DX001 (ip), vehicle: carboxymethylcellulose (CMC) 90 % of control | [4] 104 % of control | [5] 95 % of control

Nc1ccc(S(=O)(=O)Nc2ccc([N+](=O)[O-])cc2)cc1
inactive: [6] 98 % of control | [7] 93 % of control | [8] 98 % of control | [9] 110 % of control | [10] 100 % of control

Cc1ccc(S(=O)(=O)[O][Pb]([CH3])([CH3])[CH3])cc1
inactive: dose: 3.12 mg/kg/injection, schedule: Q01DX009 (ip), vehicle: saline 104 % of control | dose: 3.12 mg/kg/injection, schedule: Q04DX002 (ip), vehicle: saline 108 % of control | dose: 6.25 mg/kg/injection, schedule: Q01DX009 (ip), vehicle: saline 86 % of control | dose: 6.25 mg/kg/injection, schedule: Q04DX002 (ip), vehicle: saline 108 % of control | dose: 12.5 mg/kg/injection, schedule: Q04DX002 (ip), vehicle: saline 101 % of control

COc1cc(C(=O)O)c2c(c1C)OC(=O)c1c(C)cc(O)c(C=O)c1O2
inactive: dose: 8.0 mg/kg/injection, schedule: Q01DX Z (ip), vehicle: saline 91 % of control | dose: 16.0 mg/kg/injection, schedule: Q01DX Z (ip), vehicle: saline 102 % of control | dose: 32.0 mg/kg/injection, schedule: Q01DX Z (ip), vehicle: saline 100 % of control | dose: 40.0 mg/kg/injection, schedule: Q04DX003 (ip), vehicle: Klucel (hydroxypropylcellulose) (HPC) 97 % of control | dose: 64.0 mg/kg/injection, schedule: Q01DX Z (ip), vehicle: saline 111 % of control | dose: 80.0 mg/kg/injection, schedule: Q04DX003 (ip), vehicle: Klucel (hydroxypropylcellulose) (HPC) 107 % of control | dose: 160.0 mg/kg/injection, schedule: Q04DX003 (ip), vehicle: Klucel (hydroxypropylcellulose) (HPC) 107 % of control

CC(=O)c1ccccc1OC(=S)N(C)C
inactive: [11] 87 % of control | dose: 200.0 mg/kg/injection, schedule: Q04DX003 (ip), vehicle: saline with Tween-80 95 % of control

O=C1OC(c2ccccc2)CC12CCCCC2 (stereo not drawn)
inactive: [12] 102 % of control | [13] 100 % of control | [14] 100 % of control

CC(C)N1CCC(=O)NC1=O
inactive: [12] 94 % of control | [15] 94 % of control | [13] 94 % of control | [16] 92 % of control | [14] 91 % of control | [17] 103 % of control

O=C1OC(c2ccccc2)=N/C1=C\c1ccc2c(c1)OCO2
inactive: [4] 95 % of control | [5] 98 % of control

CCOc1cccc(OC(C)=O)c1
inactive: dose: 75.0 mg/kg/injection, schedule: Q01DX001 (ip), vehicle: carboxymethylcellulose (CMC) 103 % of control | dose: 150.0 mg/kg/injection, schedule: Q01DX001 (ip), vehicle: carboxymethylcellulose (CMC) 90 % of control

CC(N)C(=O)Nc1ccc(C(=O)O)c(O)c1 (stereo not drawn)
inactive: [18] 109 % of control | [19] 102 % of control | [20] 106 % of control

C=CC1(C)CCC2C(=CCC3C(C)(COC4OC(CO)C(O)C(O)C4O)C(O)CCC23C)C1 (stereo not drawn)
inactive: dose: 75.0 mg/kg/injection, schedule: Q01DX001 (ip), vehicle: saline 102 % of control | dose: 150.0 mg/kg/injection, schedule: Q01DX001 (ip), vehicle: saline 98 % of control

O=C(CNC(=O)c1ccccc1)Nc1ccccc1
inactive: [1] 105 % of control | [2] 97 % of control | [3] 97 % of control

Nc1ncc2[nH]c(I)nc2n1
inactive: dose: 5.0 mg/kg/injection, schedule: Q01DX001 (ip), vehicle: saline 98 % of control

O=C(O)/C(Br)=C(\Br)c1ccccc1
inactive: [8] 101 % of control | [9] 92 % of control | [10] 95 % of control

COc1ccc(-n2c(=O)c(N=Nc3ccccc3C)c(O)n(-c3ccc(Cl)cc3)c2=S)cc1
inactive: dose: 50.0 mg/kg/injection, schedule: Q01DX001 (ip), vehicle: Klucel (hydroxypropylcellulose) (HPC) 100 % of control | [21] 100 % of control | dose: 200.0 mg/kg/injection, schedule: Q01DX001 (ip), vehicle: Klucel (hydroxypropylcellulose) (HPC) 102 % of control

O=C(CI)Nc1ccc2oc(=O)c(C(=O)O)cc2c1
inactive: dose: 20.0 mg/kg/injection, schedule: Q01DX001 (ip), vehicle: Klucel (hydroxypropylcellulose) (HPC) 100 % of control | dose: 40.0 mg/kg/injection, schedule: Q01DX001 (ip), vehicle: Klucel (hydroxypropylcellulose) (HPC) 108 % of control | dose: 80.0 mg/kg/injection, schedule: Q01DX001 (ip), vehicle: Klucel (hydroxypropylcellulose) (HPC) 107 % of control | [21] 97 % of control

CCCCCC(Oc1ccc(Cl)cc1Cl)C(=O)O (stereo not drawn)
inactive: dose: 100.0 mg/kg/injection, schedule: Q04DX002 (ip), vehicle: Klucel (hydroxypropylcellulose) (HPC) 100 % of control | dose: 200.0 mg/kg/injection, schedule: Q04DX002 (ip), vehicle: Klucel (hydroxypropylcellulose) (HPC) 97 % of control

COC(=O)C(Nc1ccc([N+](=O)[O-])cc1[N+](=O)[O-])C(O)c1ccccc1 (stereo not drawn)
inactive: [1] 98 % of control | [2] 111 % of control | [3] 93 % of control

Nc1cccc2ncccc12
inactive: [15] 104 % of control | [16] 101 % of control | [17] 103 % of control

O=c1[nH]c2ncccc2c(=O)n1O
inactive: dose: 50.0 mg/kg/injection, schedule: Q01DX001 (ip), vehicle: saline 96 % of control | [1] 100 % of control | [22] 96 % of control | [2] 96 % of control | [23] 98 % of control | [24] 94 % of control

ClCCN(CCCl)c1ccc(Nc2nc(Nc3ccc(N(CCCl)CCCl)cc3)c3ccccc3n2)cc1
inactive: dose: 25.0 mg/kg/injection, schedule: Q04DX002 (ip), vehicle: saline 105 % of control | dose: 50.0 mg/kg/injection, schedule: Q04DX002 (ip), vehicle: saline 113 % of control | dose: 100.0 mg/kg/injection, schedule: Q04DX002 (ip), vehicle: saline 111 % of control | dose: 200.0 mg/kg/injection, schedule: Q04DX002 (ip), vehicle: saline 106 % of control and 109 % of control | dose: 400.0 mg/kg/injection, schedule: Q04DX002 (ip), vehicle: saline 95 % of control

O=S(=O)(O)c1ccc(N=Nc2ccc(O)cc2)cc1
inactive: [6] 104 % of control | [7] 102 % of control | [22] 88 % of control | [8] 101 % of control | [12] 92 % of control and 98 % of control | [11] 107 % of control | [23] 88 % of control | [13] 92 % of control and 102 % of control | [24] 90 % of control | [14] 97 % of control

COc1cc(I)c(CC(=O)O)cc1OC
inactive: [1] 97 % of control | [18] 93 % of control | [15] 96 % of control | [2] 97 % of control | [19] 91 % of control | [16] 96 % of control | [3] 96 % of control | [20] 96 % of control | [17] 90 % of control
